Assay results taken from PubChem BioAssay (NCI).
Several values for one entry are separate records, joined by “and”; a condition that tells them apart may be missing. Equal values may be shown once.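 How tested: cells in 96-well plates exposed to compound for 48 hours at five concentrations. The concentration for 50% growth inhibition is given as GI50. TGI: concentration producing complete growth inhibition.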

What follows are compounds tested on MDA-MB-468 breast (assay: inhibition of tumour cell growth, NCI panel, 48 h).

SMILES | GI50 | TGI
Cc1c(F)c(N)c2c(=O)cc(-c3ccc(NC(=O)CN(C)C)c(F)c3)oc2c1F | 57.7 nM | 394 nM
NCC(=O)NS(=O)(=O)OC[C@H]1O[C@@H](n2cnc3c(N)ncnc32)[C@H](O)[C@@H]1O | 742 nM | 2560 nM
Cc1ccc2c(c1)C(=O)/C(=C/c1ncc([N+](=O)[O-])n1C)O2 | 1850 nM | 4340 nM
COc1cc(/C=N/n2cnc3oc(-c4ccccc4)cc3c2=N)cc(CN2CCCC2)c1O | 2010 nM | 5080 nM
O=C(Nc1ccc(N2CCNCC2)cc1)c1[nH]ncc1Nc1cc(Oc2ccccc2)ncn1 | 1990 nM | 4830 nM
O=C1/C(=C/c2ccc(Br)cc2)C=C(c2ccccc2)N1CCc1ccccc1 | 1270 nM | 7800 nM
O=C(CN1CCOCC1)Nc1ccc(Cn2nnc3c2C(=O)c2nnn(Cc4ccc(NC(=O)CN5CCOCC5)cc4)c2C3=O)cc1 | 208 nM | 550 nM
CN1CCN(Cc2ccc(NC(=O)c3cncc(C#Cc4cnc(N)c5ccc(C#N)cc45)c3)cc2C(F)(F)F)CC1 | 60.8 nM | 627 nM
COC(=O)CCCCN=Cc1c(O)c(O)c(C(C)C)c2cc(C)c(-c3c(C)cc4c(C(C)C)c(O)c(O)c(C=NCCCCC(=O)OC)c4c3O)c(O)c12 | 780 nM | 3060 nM
Cn1cc(-c2cnc3ccc(NC(=O)Nc4ccc(F)c(Br)c4)cc3n2)cn1 | 1410 nM | 3860 nM
COc1cc(O)c2c(c1)/C=C/C[C@H](O)[C@H](O)C(=O)/C=C\C[C@H](C)OC2=O | 3850 nM and 5600 nM | 13300 nM and 20700 nM
CN(C)CCNc1cc(-c2ccccc2)nc2ccccc12 | 3850 nM | 16800 nM
CCNCCNc1cc(-c2ccc(C(=O)OC)cc2)c(C#N)c2nc3ccccc3n12 | 1370 nM | 2860 nM
CCCCC/C(C=C(C#N)C#N)=C/c1ccccc1 | 10200 nM | 27200 nM
CCCCCc1ccc(S(=O)(=O)Nc2cccc(-c3csc(NC(=O)CCCCCN4CCN(C)CC4)n3)c2)cc1 | 1790 nM | 3460 nM
CCCCC(=O)OCC1OC(n2cnc3c(=S)nc[nH]c32)C(OC(=O)CCCC)C1OC(=O)CCCC (centres undefined) | 215 nM | 1520 nM
Cn1c(N2NC(=O)C(N=Nc3ccc(S(N)(=O)=O)cc3)C2=O)nc(-c2ccco2)c(C#N)c1=O (centres undefined) | 1610 nM | 6730 nM
COc1cc(OC)cc(-c2ccc(-c3ccc(C(=N)N)o3)o2)c1 | 2400 nM | 4730 nM
O=C(NCCOCCOCCNc1cccc2c1C(=O)N(C1CCCNC1=O)C2=O)c1cc2c(o1)C(=O)c1ccccc1C2=O (centres undefined) | 1610 nM | 4430 nM
N#CSCC1CC(O)(c2ccccc2)C(c2ccccc2)C(c2ccc(Cl)cc2)O1 (centres undefined) | 1440 nM | 2850 nM
COc1cc(/C=C/c2cc(/C=C/c3ccc(O)c(OC)c3)n(-c3ccccc3)n2)ccc1O | 271 nM | 908 nM
Nc1ccn(C2O[C@H](CO)[C@@H](O)[C@@H]2O)c(=O)n1 (some centres undefined) | > 100000 nM | > 100000 nM
COc1ccc(/C(=C2\O[C@@H]([C@H]3COC(C)(C)O3)[C@H]3OC(C)(C)O[C@@H]23)c2cc(OC)c(OC)c(OC)c2)cc1O | 14500 nM | 34100 nM

SMILES | GI50 | TGI
O=C1c2cccc(NCCN=Cc3cc(O)ccc3O)c2C(=O)c2c(NCCN=Cc3cc(O)ccc3O)cccc21 | 584 nM | 2370 nM
COc1ccc2c(c1)c(-c1nc(-c3cn(C)c4ncccc34)cs1)cn2CCCN1CCCCC1 | 1800 nM | 3550 nM
CCOc1cccc(/C=N/NC(=O)c2ccccc2Nc2ccnc(C(F)(F)F)c2)c1O | 271 nM | 9280 nM
Oc1ccc(CSc2nnc(-c3cnccn3)n2-c2ccccc2)c2cccnc12 | 970 nM | > 20000 nM
COc1cccc(-c2cc(=O)c3cc(N(C)C)ccc3[nH]2)c1 | – | > 100000 nM and 59200 nM
O=C1c2c(c3c4ccccc4n(CCCCCCBr)c3c3[nH]c4ccccc4c23)C(=O)N1O | 2820 nM | 8180 nM
CN(C)CCNC(=O)c1ccc(-c2nc3ccc4[nH]ncc4c3c3c2CCC3)cc1 | 448 nM | 1490 nM
O=C(CI)NC1Oc2ccccc2-c2oc(=O)c(-c3ccccc3)cc21 (centres undefined) | 1790 nM | 4320 nM
Cc1ccc(S(=O)(=O)N(CCOc2ccc(/C(N)=N/Cl)cc2)CCOc2ccc(/C(N)=N\Cl)cc2)cc1 | 3980 nM | 21400 nM
CNC(=O)OCc1c(COC(=O)NC)c(-c2ccc(Cl)c(Cl)c2)n2c1SCC2 | 264 nM | 1270 nM
COc1ccc2[nH]c(O)c(/C=c3/cc4c(c(-c5cc(OC)c(OC)c(OC)c5)n3)=Nc3ccccc3-4)c2c1 | 2620 nM | 11700 nM
O=C(O)CCCCC(CCSCc1ccccc1)SCc1ccccc1 (centres undefined) | 45100 nM | > 91400 nM
N#C/C(=C1C=C/C(=N/O)C(Br)=C/1)c1ccccc1 | 1530 nM | 15000 nM
O=[N+]([O-])/C=C\c1ccc(Cl)c(Cl)c1 | 1790 nM | 3760 nM
C[C@]12CC[C@H](O)CC1=CC[C@@H]1[C@@H]2CC[C@]2(C)C(c3cccnc3)=CC[C@@H]12 | 26900 nM | > 100000 nM
CC1=C(C(=O)Nc2ccc3[nH]ncc3c2)C(c2ccc3ccccc3c2)CC(=O)N1 (centres undefined) | 13900 nM | > 25000 nM
COc1ccc(C2=NN(C(=O)c3cc(OC)c(OC)c(OC)c3)C(c3ccc(C#N)cc3)C2)cc1OC (centres undefined) | 419 nM | 2890 nM
Cc1ccc(CS/C(=C\c2ccc([N+](=O)[O-])cc2)C(=O)c2ccc(F)cc2)cc1 | 3410 nM | 16400 nM
CC[CH2][Pb]([CH2]CC)([CH2]CC)[O]C(=O)C(F)(F)F | 55.1 nM | 153 nM
O=c1oc2ccc(F)cc2c(=O)n1-c1ccc(F)cc1F | 2760 nM | 7780 nM
COc1cccc(/C=N/NC(=O)c2ccccc2Nc2ccnc(C(F)(F)F)c2)c1O | 218 nM | 9620 nM
CC1=C(CCCNS(C)(=O)=O)C2=C(C)C3(CC3)[C@@](C)(O)C(=O)C2=C1 | 354 nM | 1660 nM
